Measured values published in patent publication US8278480B2, “Salts, aqueous liquid compositions containing salts of S-(+)-abscisic acid and methods of their preparation” (Valent BioSciences Corporation, priority 2008, dated 2012).
Several values for one entry are separate records, joined by “and”; a condition that tells them apart may be missing. Equal values may be shown once. Where a name gives a salt, the structure may show the parent alone.

What was measured:
tomato plants = assay: Phytotoxicity observed on treated tomato plants; format: in vivo, Tomato (variety: Rutgers)
Experimental: (§1) All experiments were conducted using a randomized complete block experimental design. Solutions of (S)-(+)-abscisic acid and blank treatments (plain water) were applied by spray to the aerial parts of the tomato plants at the rate of 24 mL per 6 plants. Plants were then placed in a transparent chamber with humidity controlled within the range of 40 to 60% relative humidity. Leaf transpiration rates were measured at 1, 2, 3, 4 and 7 days after treatment. Measurements were conducted using a LI-1600 Steady State Porometer (LI-Cor, Lincoln, Nebr.). Each day the transpiration rate of the plants of each treatment group was normalized to a percentage of the transpiration rate of untreated plants (plants sprayed with water only) in order to control for day-to-day variability in plant status caused by changes of environmental conditions such as light intensity and temperature. Data for each plant was also averaged over a 3-day period to balance the short term and long term effect of (S)-(+)-abscisic acid on tomato leaf transpiration as well as to reduce experimental variability. It is important to note that no phytotoxicity was observed on any of the plants treated with the compositions of the present invention.

[1] = tested on: tomato leaf transpiration; assay: Tomato leaf transpiration inhibition after foliar spray (LI-1600 porometer); format: in vivo, Tomato (variety: Rutgers); settings: for Transpiration rate (% of control), 1 day after treatment: day 1; for Transpiration rate (% of control), 2 days after treatment: day 2; for Transpiration rate (% of control), 3 days after treatment: day 3; for Transpiration rate (% of control), 4 days after treatment: day 4; for Transpiration rate (% of control), 7 days after treatment: day 7; for ABA dose to achieve 50% inhibition of transpiration: from linear regression of 3-day average transpiration rate on log dose; for Transpiration rate (% of control), 9 days after treatment: day 9
Experimental: (§2) Preparation of plant specimens for use in the treatment studies of the EXAMPLES that follow was carried out as follows. Tomato (variety: Rutgers) seeds were sown in an 18-cell flat filled with Promix PGX (available from Premier Horticulture Inc., Quakertown Pa.) and grown for 3 weeks to allow for germination and initial growth. Plants were then transplanted into pots (18 cm in diameter and 18 cm in height), filled with Promix BX (available from Premier Horticulture Inc., Quakertown Pa.), and grown for one or two more weeks before treatment, depending on temperature and available light. Plants received daily irrigation and weekly fertilizer (1 g/L all purpose fertilizer 20-20-20, available from The Scotts Company, Marysville, Ohio).
(§3) All treatment solutions were made up with distilled water. The (S)-(+)-abscisic acid (95% active ingredient) is available from Lomon BioTechnology Co., Ltd. (Shichuan, China). The prior art aqueous solution composition of the ammonium salt of (S)-(+)-abscisic acid as prepared in Example 11 above was used as a positive treatment control for most of the studies.
as §1, with “variability.” for “variability. It is important to note that no phytotoxicity was observed on any of the plants treated with the compositions of the present invention.”
The regression equation of each (S)-(+)-abscisic acid salt as well as abscisic acid concentrations for 50% inhibition of transpiration were calculated. The relative potency of two ABA salts is the reciprocal of the ratio of (S)-(+)-abscisic acid concentration required for 50% transpiration inhibition for each composition.

[2] = tested on: tomato shoot fresh weight; assay: Tomato shoot fresh weight 7 days after treatment (growth suppression); format: in vivo, Tomato (variety: Rutgers); settings: foliar spray
Experimental: as §2, §3
as §1, with “variability.” for “variability. It is important to note that no phytotoxicity was observed on any of the plants treated with the compositions of the present invention.”
In this experiment, the fresh weights of the aerial parts of the tomato plants were also measured at the end of the experiment, 7 days after treatments were applied, in order to assess the relative growth suppressing activity of the compositions.

[3] = cited from earlier work
tomato plant height = assay: Tomato plant height 7 days after treatment (growth suppression); format: in vivo, Tomato (variety: Rutgers); settings: foliar spray
Experimental: as §2, §3, §1
In this experiment, the fresh weights of the aerial parts of the tomato plants and their heights were also measured at the end of the experiment, 7 days after treatments were applied, in order to assess the relative growth suppressing activity of the compositions.

[4] = tomato plants after foliar spray
[5] = (S)-(+)-abscisic acid dose 0.3 mg, foliar spray
[6] = (S)-(+)-abscisic acid dose 1 mg, foliar spray
[7] = (S)-(+)-abscisic acid dose 3 mg, foliar spray
[8] = (S)-(+)-abscisic acid dose 10 mg, foliar spray
[9] = foliar spray, 250 ppm (S)-(+)-abscisic acid (1 mg), additives as in label
[10] = reciprocal of ratio of doses for 50% transpiration inhibition
[11] = 75 ppm (0.3 mg) (S)-(+)-abscisic acid
[12] = 250 ppm (1 mg) (S)-(+)-abscisic acid, additives as in label
[13] = 750 ppm (3 mg) (S)-(+)-abscisic acid
[14] = 2500 ppm (10 mg) (S)-(+)-abscisic acid

Row | Compound | Phytotoxicity (tomato plants; [4]) | Transpiration rate (% of control), Average of 3 days after treatment [1, 5] | Transpiration rate (% of control), Average of 3 days after treatment [1, 6] | Transpiration rate (% of control), Average of 3 days after treatment [1, 7] | Transpiration rate (% of control), Average of 3 days after treatment [1, 8] | Transpiration rate (% of control), 7-Day Average [1, 9] | Transpiration rate (% of control), 1 day after treatment [1, 9] | Transpiration rate (% of control), 2 days after treatment [1, 9] | Transpiration rate (% of control), 3 days after treatment [1, 9] | Transpiration rate (% of control), 4 days after treatment [1, 9] | Transpiration rate (% of control), 7 days after treatment [1, 9] | ABA dose to achieve 50% inhibition of transpiration [1] | Relative potency compared to the ammonium salt composition of Comparative Example 11 [1, 10] | Fresh weight (g) 7 days after treatment [2, 11] [g] | Fresh weight (g) 7 days after treatment [2, 12] [g] | Fresh weight (g) 7 days after treatment [2, 13] [g] | Fresh weight (g) 7 days after treatment [2, 14] [g] | Transpiration rate (% of control), 9-Day Average [1, 9] | Transpiration rate (% of control), 9 days after treatment [1, 9] | other results
1 | CC1=CC(=O)CC(C)(C)[C@@]1(O)/C=C/C(C)=C\C(=O)[O-].[Cs+] [Example 2, Cesium Salt of (S)-(+)-Abscisic Acid] | without producing phytotoxicity | 72 % of control | 57 % of control | 47 % of control | 37 % of control | 67.8 % of control | 47.1 % of control | 59.0 % of control | 63.9 % of control | 77.8 % of control | 91.1 % of control | 2.41 mg | 3.2 times and 2.8 times | 16.2 | 15.3 | 14.7 | 11.3 |  |  | 
2 | CC1=CC(=O)CC(C)(C)[C@@]1(O)/C=C/C(C)=C\C(=O)O [abscisic acid, 2-cis-,4-trans-(S)-(+)-abscisic acid] |  |  |  |  |  |  |  |  |  |  |  |  |  |  |  |  |  |  |  | Solubility in propylene glycol ([3]; propylene glycol): poorly soluble; Solubility in water (highest concentration achievable) ([3]; pure water, room / ordinary ambient temperature): ≤ 3000 ppm
3 | CC1=CC(=O)CC(C)(C)[C@@]1(O)/C=C/C(C)=C\C(=O)[O-].C[N+](C)(C)CCO [Example 5, Choline Salt of (S)-(+)-abscisic Acid] |  | 78 % of control | 63 % of control | 53 % of control | 41 % of control | 72.5 % of control | 52.3 % of control | 63.7 % of control | 73.8 % of control | 79.0 % of control | 93.4 % of control | 4.02 mg | 2.6 times and 4.2 times | 18.2 | 17.5 | 16.8 | 16.0 |  |  | Phytotoxicity (tomato plants; in vivo): without producing phytotoxicity
4 | CC1=CC(=O)CC(C)(C)[C@@]1(O)/C=C/C(C)=C\C(=O)[O-].CCCC[N+](CCCC)(CCCC)CCCC [Example 4, Tetrabutylammonium Salt of (S)-(+)-Abscisic Acid] | without producing phytotoxicity | 84 % of control and 80 % of control | 72 % of control and 61 % of control | 56 % of control and 47 % of control | 38 % of control and 29 % of control | 70.9 % of control | 63.4 % of control and 55.1 % of control | 73.9 % of control and 61.0 % of control | 77.8 % of control and 68.3 % of control | 79.3 % of control and 77.6 % of control | 89.2 % of control and 92.4 % of control | 4.35 mg and 2.33 mg |  | 15.3 | 14.8 | 12.5 | 11.4 | 79.7 % of control | 94.6 % of control | Relative potency compared to the tributylamine salt composition of Comparative Example 14 [1, 10]: 1.9 times
5 | CC1=CC(=O)CC(C)(C)[C@@]1(O)/C=C/C(C)=C\C(=O)[O-].[Rb+] [Example 1, Rubidium Salt of (S)-(+)-Abscisic Acid] | without producing phytotoxicity | 77 % of control | 67 % of control | 54 % of control | 39 % of control | 75.9 % of control | 55.8 % of control | 68.0 % of control | 76.5 % of control | 88.2 % of control | 91.0 % of control | 4.05 mg | 2.4 times | 18.6 | 18.1 | 17.2 | 16.4 |  |  | 
6 | CC1=CC(=O)CC(C)(C)[C@@]1(O)/C=C/C(C)=C\C(=O)O [Example 11, Ammonium Salt of (S)-(+)-Abscisic Acid, reference compound] |  | 82 % of control and 80 % of control and 77 % of control and 95 % of control and 90 % of control and 81 % of control and 88 % of control | 72 % of control and 69 % of control and 65 % of control and 78 % of control and 70 % of control and 77 % of control and 71 % of control | 60 % of control and 58 % of control and 55 % of control and 67 % of control and 59 % of control and 62 % of control and 57 % of control | 50 % of control and 48 % of control and 44 % of control and 53 % of control and 51 % of control and 52 % of control and 55 % of control and 49 % of control |  |  |  |  |  |  |  |  |  |  |  |  | 87.3 % of control | 100.8 % of control | Plant height (cm) 7 days after treatment (tomato plant height; [11]): 19.9 cm; Plant height (cm) 7 days after treatment (tomato plant height; [12]): 19.8 cm and 32.1 cm; Plant height (cm) 7 days after treatment (tomato plant height; [13]): 18.6 cm; Plant height (cm) 7 days after treatment (tomato plant height; [14]): 18.6 cm; Transpiration rate (% of control), 4 Day Average ([1]; foliar spray, 250 ppm (S)-(+)-abscisic acid (1 mg), additives as in label, 4-day average): 75.4 % of control
